Data set [1] is described as follows: Solubility of compound in phosphate buffer at pH 8 using crystalline form of sample. In kind it is physicochemical.
The next data set has as its target Cytochrome P450 2D6 (Homo sapiens, UniProt P10635). The data set can be described thus: Inhibition of CYP2D6 in human liver microsomes using dextromethorphan as substrate incubated for 15 mins in presence of NADPH generating system by LC-MS/MS analysis. In kind it is ADME. On the technique in general: Liver microsomes are a subcellular fraction often used to study metabolism.

For another data set, the target named is Cytochrome P450 2C9 (Homo sapiens, UniProt P11712). Briefly: Inhibition of CYP2C9 in human liver microsomes using diclofenac as substrate incubated for 15 mins in presence of NADPH generating system by LC-MS/MS analysis. In kind it is ADME.
Chain of Cytochrome P450 2C9 (P11712 whole entry): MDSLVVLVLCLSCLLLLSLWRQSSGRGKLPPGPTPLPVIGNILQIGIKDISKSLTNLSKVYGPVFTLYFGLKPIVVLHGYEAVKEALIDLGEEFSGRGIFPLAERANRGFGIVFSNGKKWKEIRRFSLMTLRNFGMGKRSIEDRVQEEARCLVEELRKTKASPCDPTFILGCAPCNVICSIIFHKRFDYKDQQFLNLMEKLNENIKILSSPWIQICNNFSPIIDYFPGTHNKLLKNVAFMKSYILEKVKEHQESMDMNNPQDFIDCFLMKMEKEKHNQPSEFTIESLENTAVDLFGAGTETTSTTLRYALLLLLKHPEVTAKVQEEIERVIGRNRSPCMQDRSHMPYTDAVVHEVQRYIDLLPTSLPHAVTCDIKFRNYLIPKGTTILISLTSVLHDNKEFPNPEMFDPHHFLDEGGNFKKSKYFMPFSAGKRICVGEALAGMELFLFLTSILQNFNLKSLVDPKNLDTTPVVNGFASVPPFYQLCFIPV
The nature of data set [2]: Maximum oral bioavailability in rat hepatocytes based well stirred liver model at 1 uM measured after 2 to 90 mins by LC-MS/MS analysis. The format is ADME, Hepatocyte. The following applies: time 2-90 min, read-out: Fmax.
Data set [3] is described as follows: Clearance in Wistar rat at 0.3 to 1 mg/kg, iv administered as bolus dose or 15 mins infusion by LC-MS/MS analysis. The format is ADME, organism-based. Particulars: Wistar, in vivo, dose 0.3-1 mg/kg.
In data set [4] the target is Prostaglandin E2 receptor EP3 subtype (Homo sapiens, UniProt P43115). Briefly: Displacement of [3H]prostaglandin E2 from full-length recombinant human EP3 receptor expressed in HEK293 cell membranes measured after 120 mins by scintillation counting method. (In a radioligand displacement assay an active substance lowers the binding of a labelled ligand.)
Chain of Prostaglandin E2 receptor EP3 subtype (P43115 whole entry): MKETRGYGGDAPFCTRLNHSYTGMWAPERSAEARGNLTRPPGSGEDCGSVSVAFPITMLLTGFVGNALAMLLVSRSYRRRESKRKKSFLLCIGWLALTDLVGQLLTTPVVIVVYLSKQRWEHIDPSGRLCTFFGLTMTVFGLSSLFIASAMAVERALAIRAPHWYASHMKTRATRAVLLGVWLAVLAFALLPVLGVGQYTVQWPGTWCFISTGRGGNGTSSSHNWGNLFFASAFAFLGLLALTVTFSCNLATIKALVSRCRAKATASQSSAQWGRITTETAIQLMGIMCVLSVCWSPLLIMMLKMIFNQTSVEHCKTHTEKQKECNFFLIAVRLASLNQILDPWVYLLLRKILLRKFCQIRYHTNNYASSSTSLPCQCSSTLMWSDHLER
Data set [5] has as its target Prostaglandin F2-alpha receptor (Rattus norvegicus, UniProt P43118). Briefly: Antagonist activity at FPR in Wistar rat assessed as inhibition of PGF2alpha-induced uterus contraction. The format is tissue-based.
The nature of data set [6]: Protein binding in pooled dog plasma assessed as unbound fraction incubated for 6 hrs by LC-MS/MS analysis based equilibrium dialysis method. In kind it is ADME, cell-free, Canis lupus familiaris. (In general: In equilibrium dialysis free small molecules cross a membrane that holds back macromolecules.)
The nature of data set [7]: Drug metabolism in human hepatocytes assessed as formation of hydroxylated and ring-opened pyrrolidine derivative at 1 uM measured after 1 to 4 hrs by LC-MS/MS analysis. In kind it is ADME, cell-based, Hepatocyte. Particulars: time 1-4 hrs.
Data set [8] in a line: Clearance in Balb/c mouse at 1 mg/kg, iv administered as bolus dose or 3 mg/kg, po administered via gavage by LC-MS/MS analysis. The format is ADME, organism-based. Particulars: in vivo.
Data set [9] in a line: Volume of distribution at steady state in Wistar rat at 1 mg/kg, iv administered as bolus dose or 3 mg/kg, po administered via gavage by LC-MS/MS analysis. In kind it is ADME, organism-based. Particulars: in vivo, read-out: Vdss.
Data set [10] is described as follows: Terminal half life in Beagle dog at 0.5 mg/kg, iv administered as 15 mins infusion by LC-MS/MS analysis. The format is ADME, organism-based, Canis lupus familiaris. Particulars: in vivo, read-out: beta t1/2 (converted).

≈ marks a conversion by molar mass, not a printed value. Bounds are passed on as bounds.

Chain of Cytochrome P450 2D6 (P10635 whole entry): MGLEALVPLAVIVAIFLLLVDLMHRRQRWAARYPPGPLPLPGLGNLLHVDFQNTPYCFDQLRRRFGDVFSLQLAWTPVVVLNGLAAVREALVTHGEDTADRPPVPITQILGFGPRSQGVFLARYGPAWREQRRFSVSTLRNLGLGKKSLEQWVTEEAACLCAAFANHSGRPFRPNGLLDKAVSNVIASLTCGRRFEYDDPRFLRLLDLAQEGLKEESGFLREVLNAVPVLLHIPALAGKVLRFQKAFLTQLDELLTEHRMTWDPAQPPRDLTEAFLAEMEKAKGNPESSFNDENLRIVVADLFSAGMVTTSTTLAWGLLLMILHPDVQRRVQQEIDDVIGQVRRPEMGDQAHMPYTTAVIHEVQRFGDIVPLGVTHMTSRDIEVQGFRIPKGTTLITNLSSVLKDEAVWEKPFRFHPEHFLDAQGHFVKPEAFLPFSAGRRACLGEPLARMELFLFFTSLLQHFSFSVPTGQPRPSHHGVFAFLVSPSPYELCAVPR
Chain of Prostaglandin F2-alpha receptor (P43118 whole entry): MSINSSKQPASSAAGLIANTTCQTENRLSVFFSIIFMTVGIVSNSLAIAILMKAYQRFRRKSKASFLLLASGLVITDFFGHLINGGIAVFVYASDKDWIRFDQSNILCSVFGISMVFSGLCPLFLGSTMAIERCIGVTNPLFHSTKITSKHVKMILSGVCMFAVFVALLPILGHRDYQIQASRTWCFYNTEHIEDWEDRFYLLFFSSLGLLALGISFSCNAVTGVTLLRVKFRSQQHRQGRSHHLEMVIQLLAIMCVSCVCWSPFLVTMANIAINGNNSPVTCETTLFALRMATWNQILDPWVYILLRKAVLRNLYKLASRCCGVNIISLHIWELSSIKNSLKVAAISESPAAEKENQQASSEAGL

In general, solubility (thermodynamic) refers to the concentration in solution at equilibrium with solid. For orientation: IC50 means the point on the concentration scale where inhibition reaches its midpoint. One may read the fraction unbound as free concentration divided by total concentration. With `Cc1c(N2CCCC2)nc2ccc(Br)cc2c1C(=O)NC[C@H](CCC(=O)O)c1ccccc1Cl` [BAY-6672], in data set [1], the thermodynamic solubility is 290 µg/mL (≈ 532 µM). The IC50 on Cytochrome P450 2D6 was over 20 µM; on Cytochrome P450 2C9, over 20 µM; in data set [4], over 10 µM; in [5], 0.052 µM. Besides, the Fh at 1 µM in data set [2] is 67%. Besides, the clearance in data set [3] was 11.7 mL/min/kg; in data set [8] it was 18.3 mL/min/kg. In addition, in [6], the fraction unbound at 6 h is under 0.01. The Drug metabolism result in [7] is on record as “Metabolite_Detected”. The Vd in data set [9] is 2.1 L/kg. Further, the half-life in data set [10] was 14 h.

These data come from ChEMBL document CHEMBL4665834 (J Med Chem, 2020).
